# Reference: patent publication US20230026869A1, “CRYSTAL FORM OF NUCLEOPROTEIN INHIBITOR AND USE THEREOF” (CHIA TAI TIANQING PHARMACEUTICAL GROUP CO., LTD., priority 2019, published 2023)
# What was measured:
# [1] = tested on: HBV; assay: qPCR assay for in vitro testing of HBV (HBV DNA content in HepG2.2.15 cells); type: cell-based; details: Hepatitis B virus, 192 h, HBV DNA by qPCR, day 8, read-out: Concentration for 50% of maximal effect (EC50) of HBV
# Method: HBV DNA content in HepG2.2.15 cells was detected by a real time-qPCR assay, and the inhibitory action of the compound on HBV was evaluated by taking the EC50 value of the compound as an index.
# 2.1. cell lines: HepG2.2.15 cells
# 3.1. HepG2.2.15 cells (4×10^4 cells/well) were plated in a 96-well plate and cultured overnight at 37° C. and 5% CO2.
# 3.2. On the next day, the compound was diluted for a total of 8 concentrations, with 3-fold gradient dilutions. The compound at different concentrations was added into the culture wells in duplicate. The final concentration of DMSO in the culture medium was 1%. 1 μM GLS4 served as 100% inhibition control (WO2008154817A1 discloses the structure of GLS4 as follows:
# DMSO at 1% served as 0% inhibition control.
# 3.3. On the fifth day, the original culture medium was replaced with a fresh culture medium containing the compound.
# 3.4. On the eighth day, the culture medium in the culture wells was collected, and the high-throughput DNA purification kit (Qiagen-51162) was used to extract DNA. For specific steps, refer to the product manual.
# 3.6. 15 μL of the reaction mixture was added into each well of the 96-well PCR plate, and then 10 μL of sample DNA or HBV DNA standard was added into each well.
# 3.7. Reaction conditions for PCR were as follows: heating at 95° C. for 10 min; then denaturating at 95° C. for 15 s and extending at 60° C. for 1 min for 40 cycles.
# 3.8.1. […]
# [2] = molecular target: T1, CYP3A4 (Homo sapiens, UniProt P08684); assay: Inhibition of human liver microsomal cytochrome P450 isoenzyme CYP3A4; type: in vitro ADME; details: human liver microsomes
# T1 construct: from tissue; host or cells: human liver microsomes
# T1 sequence (P08684 whole entry): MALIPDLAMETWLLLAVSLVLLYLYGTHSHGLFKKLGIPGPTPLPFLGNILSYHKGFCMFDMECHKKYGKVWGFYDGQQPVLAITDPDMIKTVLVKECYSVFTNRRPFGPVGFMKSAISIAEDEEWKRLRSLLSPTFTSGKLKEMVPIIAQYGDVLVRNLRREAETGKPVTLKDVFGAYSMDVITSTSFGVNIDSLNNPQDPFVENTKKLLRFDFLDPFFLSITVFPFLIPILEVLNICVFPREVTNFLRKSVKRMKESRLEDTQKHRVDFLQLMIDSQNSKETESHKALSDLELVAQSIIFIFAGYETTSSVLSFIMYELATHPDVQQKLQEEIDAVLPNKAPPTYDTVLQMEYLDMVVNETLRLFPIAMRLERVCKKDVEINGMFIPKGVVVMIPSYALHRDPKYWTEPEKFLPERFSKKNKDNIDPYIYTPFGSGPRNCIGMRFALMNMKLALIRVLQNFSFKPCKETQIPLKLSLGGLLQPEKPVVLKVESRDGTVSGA
# Method: Objective: The inhibitory effect of the test compound on the activity of human liver microsomal cytochrome P450 isoenzymes (CYP1A2, CYP2C9, CYP2C19, CYP2D6 and CYP3A4) was determined. […]
# [3] = Metabolic stability in CD-1 mice liver microsomes; type: in vitro ADME
# Method: Objective: The metabolic stability of the test compound in CD-1 mice and human liver microsomes was determined. […]
smiles,measurement,setting,value
CC1(NC(=O)C(=O)c2c(Cl)c(C(=O)Nc3cc(F)c(F)c(F)c3)c3n2CCC3)CCC(CC(=O)O)CC1 (centres unmarked) [Compound of formula (I)],EC50,[1],4 nM
same,IC50,[2],> 50000 nM
same,microsomal CLint at 1 μM,"[3]; CD-1, mouse, microsomes",< 9.6 µL/min/mg
same,CLint scaled at 1 μM,"[3]; mouse, CD-1 mice liver microsomes",< 38 mL/min/kg
same,half-life at 1 μM,"[3]; mouse, CD-1 mice liver microsomes, 1 μM compound, 0.5 mg/mL",> 2.42 h
